Source: patent US4108987A, “Cyclic hexapeptides” (Merck & Co., Inc., priority 1977, dated 1978)
Square brackets hold non-standard residues; d marks the D form. Peptide text beside a SMILES is read from it.

Test system: rumen fluid which contained methane-producing bacteria and other rumen bacteria
Assay: In vitro rumen fermentation test
Assay type: cell-based
Procedure: Rumen fluid which contained methane-producing bacteria and other rumen bacteria was produced in a fermentor which was set up and maintained to simulate the conditions of a rumen.
The test was carried out in a screw-cap tube which was sealed with a butyl rubber stopper. […] The air in the tube was replaced with a gas mixture of 97% nitrogen-3% hydrogen made free of oxygen by passage through a catalytic purifier. After incubation for 18 hours in a water bath shaker at 39° C., 0.5 ml. of the gas was removed through the stopper into the sample loop of a Fisher Gas Partitioner. The gas sample was partitioned, and the methane produced was compared to a standard gas mixture containing a known amount of methane. The incubation mixture was acidified with 4 ml. of 10% metaphosphoric acid and centrifuged. One μl. of the supernate was analyzed by gas-liquid chromatography. The volatile fatty acids were compared to a standard volatile fatty acid mixture containing known amounts of acetic, propionic, butyric and valeric acids. Appropriate controls were included.

## O=C1N[C@H](Cc2ccccc2)C(=O)N2CCC[C@H]2C(=O)N[C@H](Cc2ccccc2)C(=O)N2CCC[C@H]2C(=O)N[C@H](Cc2ccccc2)C(=O)N2CCC[C@@H]12 [cyclo(Pro-D-Phe)3, Cyclo(Pro-D-Phe)3] (cyclo(P[dF]P[dF]P[dF]))
250 μg./ml. of tested compound, incubation 18 hours at 39° C., gas partitioner
  CH4 (methane) produced: essentially eliminated
250 μg./ml. of tested compound, incubation 18 hours at 39° C., gas-liquid chromatography
  shift in VFA ratios: significant shift in VFA ratios favoring the longer chain acids
Treated 16 μg./ml., control 1.8
  Valeric acid, μmols: 4.5 μmols
Treated 16 μg./ml., control 3.0
  Valeric acid, μmols %: 7.0 μmols %
Treated 16 μg./ml., control 7.1
  Butyric acid, μmols: 15.3 μmols
Treated 16 μg./ml., control 10.5
  Butyric acid, μmols %: 25.0 μmols %
Treated 16 μg./ml., control 19.5
  Propionic acid, μmols: 23.0 μmols
Treated 16 μg./ml., control 28.5
  Propionic acid, μmols %: 37.0 μmols %
Treated 16 μg./ml., control 39.9
  Acetic acid, μmols: 18.8 μmols
Treated 16 μg./ml., control 58.5
  Acetic acid, μmols %: 31.0 μmols %
Treated 16 μg./ml., control 68.3
  Total volatile fatty acids, μmols: 61.6 μmols
In vitro rumen fermentation
  production of VFAs (summary of tabulated data): effective in increasing the production of the VFAs, propionic, butyric and valeric at the expense of methane and acetate
